# In patent US20160022751A1, “NOVEL COMPOSITION FOR TREATING ALZHEIMER'S DISEASE AND IMPROVING COGNITIVE FUNCTION OF ALZHEIMER'S PATIENTS” (GANGNEUNG-WONJU NATIONAL UNIVERSITY INDUSTRY ACADEMY …, priority 2014, published 2016):
# Key:
# clathrin = assay: Clathrin mRNA expression in HMO6 human microglial cells (qPCR); format: cell-based; details: Aβ42 (5 μM) and/or Rg3 (2.5 or 5 μg/ml), 24 h (FIG. 15C)
# Description: FIG. 15 is a graph showing a change in the expression of caveolin-1, caveolin-2, clathrin, neprilysin (NEP), insulin-degrading enzyme (IDE) according to treating Aβ and/or ginsenoside Rg3 to HMO6 human microglial cells. HMO6 cells were plated on 35 mm cell culture plates or chamber slides and Aβ42 (5 μM) and/or Rg3 (2.5 or 5 μg/ml) were treated for 24 h. Then, the mRNA expression was determined by quantitative RT-PCR. The expression of caveolin (A-B), clathrin (C) which are endocytosis-related genes and NEP (D) and IDE (E) which are genes encoding Aβ-degrading enzymes were compared depending on the presence or absence of Rg3/Aβ42. The results are shown as mean±SD. * P<0.05, ** P<0.01, *** P<0.001. […]
# Total RNA extracts from HMO6 cells or perfused brain tissue were prepared using the Trizol method (Invitrogen). cDNA was synthesized from RNA by reverse transcription of 1 μg total RNA using the Improm-II reverse transcription system (Promega, Wis., USA) and oligo dT primers in a total volume of 20 μl. […] Relative sample expression levels were calculated using Rotor-Gene 6000 Series Software 1.7 and were expressed relative to β-actin for mice or glyceraldehyde 3-phosphate dehydrogenase for HMO6 cells and corrected for between-run variability. Data for the experimental samples are expressed as a percentage of the internal control gene. […]
# Aβ42 = assay: Passive avoidance trials (PAT) in Aβ42-infused animals; format: in vivo; details: Aβ42 rats administered Rg3 (FIG. 25)
# Description: Male BALB/c mice (10 weeks old) were purchased from Samtaco (Korea), and were adapted to laboratory conditions (temperature: 20±2° C., relative humidity: 50%, light/dark cycle: 12 h) for 1 week. Five-week-old male Sprague-Dawley rats were obtained from Daehan-Biolink (Korea) for learning and memory testing. The animals (n=5/group) were maintained at a constant temperature (23±2° C.), relative humidity, 55±10%, and 12-h light/dark cycle. The animals were fed a standard rodent chow and purified water ad libitum. Lyophilized Aβ42 (0.5 mg, Bachem Torrance, USA) was resuspended in PBS (pH 7.4) by shaking for 7 days at room temperature to prepare the fibrillar-aggregated Aβ42 (fAβ42). At 10 weeks of age, mice were anesthetized, and 1 μl fAβ42 (350 μM stock concentration) was stereotaxically injected unilaterally into the parietal cortex (anterior 1.7 mm, lateral 1 mm, and ventral 1 mm to the bregma above the hippocampus within 1 min) (Mohajeri et al., J. Biol. Chem., 277: 35460-35465, 2002)
# The present inventor performed learning and memory tests using rats in order to investigate whether Rg3 can ameliorate symptoms of Alzheimer's model animals in deed. […] The latency time of stay in the light room from lights-on was recorded following an electric shock (1 mA for 2 s) in the dark compartment. […] The mean time spent to escape onto the platform was recorded.
smiles,measurement,setting,value
CC(C)=CCC[C@](C)(O)[C@H]1CC[C@]2(C)[C@@H]1[C@H](O)C[C@@H]1[C@@]3(C)CC[C@H](O[C@@H]4O[C@H](CO)[C@@H](O)[C@H](O)[C@H]4O[C@@H]4O[C@H](CO)[C@@H](O)[C@H](O)[C@H]4O)C(C)(C)[C@@H]3CC[C@]12C [ginsenoside Rg3],clathrin-mediated Aβ42 endocytosis (clathrin mRNA),clathrin,promoted Aβ42 uptake into HMO6 cells via a caveolin1 and clathrin-mediated endocytic mechanism
same,"learning and memory functions, passive avoidance",Aβ42,maintained learning and memory functions at 4-5 weeks
